Starred links: 1 amine or outer side, 2 acyl side, 3 side chain; linkers in the order of their positions; H or OH if unused. Non-standard residues stand in square brackets, D forms with d. Residues, ends and D or L forms follow the SMILES beside them. Groups on a side chain read outwards from the residue. *: point of attachment. γGlu = O=C(O)[C@H](CCC(=O)[*:2])N[*:1]; αMeF = C[C@](N)(Cc1ccccc1)C(=O)O; αMeK = C[C@](N)(CCCCN)C(=O)O; Lauroyl = CCCCCCCCCCCC(=O)*; αMeS = C[C@](N)(CO)C(=O)O; AEEA = NCCOCCOCC(=O)O; Aib = CC(C)(N)C(=O)O
What was measured:
GLP-1 receptor = GLP-1 receptor (Homo sapiens, UniProt P43220); experiment: cAMP assay, primary assay as described in WO 2016/198544; type: cell-based; settings: in vitro potency at the GLP-1 receptor
Sequence of GLP-1 receptor (P43220 24-463): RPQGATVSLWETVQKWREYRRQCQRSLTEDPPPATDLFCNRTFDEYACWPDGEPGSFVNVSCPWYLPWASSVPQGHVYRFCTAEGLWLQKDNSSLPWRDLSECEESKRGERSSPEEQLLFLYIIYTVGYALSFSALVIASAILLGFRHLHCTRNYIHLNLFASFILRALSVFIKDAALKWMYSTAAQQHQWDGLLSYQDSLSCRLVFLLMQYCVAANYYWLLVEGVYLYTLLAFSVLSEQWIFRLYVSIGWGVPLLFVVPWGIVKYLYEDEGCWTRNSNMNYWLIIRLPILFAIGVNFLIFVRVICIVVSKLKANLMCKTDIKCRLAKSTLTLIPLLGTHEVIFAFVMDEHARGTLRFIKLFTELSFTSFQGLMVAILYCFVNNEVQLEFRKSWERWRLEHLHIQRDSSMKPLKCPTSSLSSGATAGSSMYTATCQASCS
Source text: The biological activity of a GLP-1 peptide analog can be evaluated, for example, by assessing the ability of the peptide to activate a receptor (e.g., a GLP-1 receptor). Peptide activation of such receptors results in downstream accumulation of cAMP second messenger which can be measured in a functional activity assay.

[1] = Canine study, MEDI7219 enterically coated tablet, single and repeated dosing (Example 14); type: in vivo
Description: Tablet optimization was further established in the following canine study. The goals of this study were to evaluate the performance of the group 8 tablet formulation (Example 13, Table 20) as an enterically-coated (EC) tablet and to evaluate repeated dosing of this formulation. A Eudragit formula dissolving at pH 5.5 or above was applied to the tablets as enteric coating. Enterically-coated tablets were administered on day 0 followed by a 1 week wash-out. Following wash-out, animals received additional doses on days 7, 8, 9, 10 and 11.

[2] = Canine study, compositions around 6.5:1 Na CDC:PG ratio in enterically coated tablets (Example 23, Table 30); type: in vivo; settings: dogs, oral enterically coated tablet
Source text: The following materials and methods were used for quantitative measurements of GLP-1 peptide analogs in plasma (e.g., rat or dog plasma) in the Examples below. These methods used a SCIEX 6600 TripleTOF mass spectrometer coupled with a Shimadzu ultra-high performance liquid chromatography (UHPLC). The specificity of the method was ensured by the retention time, the selected mass for Single-Reaction-Monitoring (SRM) mode, and the selected fragment mass in MS/MS (MS^2) mode.
The plasma extraction procedure used the following steps: • Samples, standards, and quality controls were incubated until they reached room temperature. They were then incubated at 60° C. for 2 minutes and cooled down to room temperature, vortexed, and spun down. • 70 μL of samples, standards, or quality controls were transferred into a 1 mL 96-well plate. • In each well, 420 uL of Precipitation Solution was added. The plate was sealed and shook for 10 minutes on a plate shaker at 600 rpm. • The plate was centrifuged at 18G, 2500 RFC, 20° C. for 10 minutes. • The plate was carefully removed, and the upper clear supernatant was extracted with a 200 uL multichannel pipette into a new 96-well protein lobind plate. The supernatant was extracted twice for each well, and the supernatants were combined. • The Plate was placed in TurboVap and the extracted supernatant was dried completely with heated (65° C.) Nitrogen gas at 60 Fahrenheit (Fh). • After the plate was completely dry, the plates were covered and incubated at room temperature for at least 30 minutes until the plate returned back to ambient temperature. • 150 μL of Reconstitution solution was added to each well. The plate was covered with a pierceable place seal and shaken at 600 rpm for 10 minutes. • The samples were submitted to the LC-MS/MS on the same day of Preparation
Quantification of the data obtained using the high resolution SCIEX 6600 instrument was then performed as follows: • For the quantification, extracted ion chromatograms (XIC) using 0.2 Da m/z extraction window centered on the accurate mass of each fragment ion were generated. Accurate mass was calculated from the structure of the compound. […] Concentrations of the target analyte in unknown samples were obtained by regression analysis using linear fits of peak areas vs. analyte concentration, weighted 1/(concentration). • The quality of the assay was controlled by the quality control samples. • Either Experiment 1 or Experiment 2 could be used for the quantification of the GLP-1 peptide analogs in high resolution mode.

[3] = 4:1 ratio, 120 mg Na CDC and 30 mg PG, 3 mg MEDI7219
[4] = 14:1 ratio, 140 mg Na CDC and 10 mg PG, 3 mg MEDI7219
[5] = 29:1 ratio, 145 mg Na CDC and 5 mg PG, 3 mg MEDI7219

EC50 (GLP-1 receptor): ~3.9 pM
F ([1]; Enterically Coated Oral tablet (Eudragit, pH 5.5): 1 mg peptide, 100 mg Na CDC, 200 mg PG): 4.6%
F ([1]; Intravenous, 0.05 mg/kg, 0.5 mg/mL in 50 mM Tris, 150 mM mannitol, 0.02% Polysorbate 80, pH8.0): 100%
F [2, 3]: ~5.7%
PK variability (CV) at C max [2, 3]: 52.8%
F [2, 4]: ~4.6%
PK variability at C max [2, 4]: 84.4%
F [2, 5]: ~3.8%
PK variability at C max [2, 5]: 135.3%
F ([2]; No PG formulation, 150 mg Na CDC): ~0.6%
Structure (SMILES): CCCCCCCCCCCC(=O)N[C@@H](CCC(=O)NCCOCCOCC(=O)NCCOCCOCC(=O)NCCCC[C@H](NC(=O)[C@H](C)NC(=O)[C@@H](NC(=O)[C@](C)(Cc1ccccc1)NC(=O)[C@H](CCC(=O)O)NC(=O)[C@](C)(CCCCN)NC(=O)[C@H](C)NC(=O)[C@H](C)NC(=O)[C@H](CCC(=O)O)NC(=O)CNC(=O)[C@H](CCC(=O)O)NC(=O)[C@H](CC(C)C)NC(=O)[C@H](CCCCNC(=O)COCCOCCNC(=O)COCCOCCNC(=O)CC[C@H](NC(=O)CCCCCCCCCCC)C(=O)O)NC(=O)[C@H](CO)NC(=O)[C@](C)(CO)NC(=O)[C@@H](NC(=O)[C@H](CC(=O)O)NC(=O)[C@H](CO)NC(=O)[C@@H](NC(=O)[C@](C)(Cc1ccccc1)NC(=O)[C@H](CO)NC(=O)CNC(=O)[C@H](CCC(=O)O)NC(=O)C(C)(C)NC(=O)[C@@H](N)Cc1c[nH]cn1)[C@@H](C)O)C(C)C)[C@@H](C)CC)C(=O)N[C@H](C(=O)N[C@H](C(=O)N[C@@H](CCC(=O)O)C(=O)NCC(=O)NCC(N)=O)C(C)C)C(C)C)C(=O)O [MEDI7219, Free-H-[AIB]-EGS-[αMePhe]-TSDV-[αMeSer]-SK[(PEG2)2-γE-Lauroyl]-LEGEAA-[αMeLys]-E-[αMePhe]-IAK[(PEG2)2-γE-Lauroyl]-VVEGG-amide] (H-H[Aib]EGS[αMeF]TSDV[αMeS]SK([AEEA-AEEA-γGlu-Lauroyl])LEGEAA[αMeK]E[αMeF]IAK([AEEA-AEEA-γGlu-Lauroyl])VVEGG-NH2)
bioavailability and PK variability on repeated dosing ([1]; enterically coated tablet 1 mg peptide, 100 mg Na CDC, 200 mg PG, day 0, then days 7, 8, 9, 10 and 11): consistent bioavailability with reduced PK variability in subsequent dosing days

— patent US11173124B2, “Oral delivery of GLP-1 peptide analogs” (MEDIMMUNE LIMITED, priority 2017, dated 2021)
